Converted amounts (≈) assume the structure as drawn.
Key:
[1] = system: increase in uterus weight by stimulus with estradiol; experiment: Anti-estrogenic activity via oral administration (inhibition of estradiol-stimulated uterus weight increase); format: in vivo; conditions: ovariectomized ICR mice, 17β-estradiol-benzoate 0.1 μg/day s.c. for 3 days, 10 mg/kg p.o., once a day, in 5% arabic gum
Protocol: Oral anti-estrogenic activity in vivo of the test compound was determined according to the method described hereinafter.
In this experiment, the test compound or the control compound was suspended in 5% arabic gum solution and orally administered for 3 days, once a day. After 24 hours from the last administration, the test animal was sacrificed and uterus was removed and weighed.

[2] = Solubility test in FaSSIF or water, shaken at 37° C., filtrate measured by HPLC
Protocol: The degree of improvement in solubility was determined by measuring the solubility of the test compound as follows.
To 1 mg of each compound was added 2 ml of FaSSIF (artificial intestinal juice, bile) or water, which was then shaken at 37° C. After 1, 2 and 20 hours, 200 μm of sample was taken and filtered. The concentration of the filtrate was measured by HPLC and the results are described in the following Table 2.

[3] = FaSSIF, 37 °C, thermodynamic from solid

Row | SMILES | Inhibition (%) of the increase in uterus weight by estradiol [1] | solubility at 1 h [2, 3] | solubility at 2 h [2, 3] | solubility at 20 h [2, 3] | Solubility in water (in words) ([2]; water as the solvent)
1 | C[C@]12CC[C@@H]3c4ccc(O)cc4C[C@@H](CCCCCCCCC[S+]([O-])CCCC(F)(F)C(F)(F)F)[C@H]3[C@@H]1CC[C@@H]2O (stereo partly shown) [ICI182,780] | 69% | 0.365 µg/mL (≈ 0.602 µM) | 0.474 µg/mL (≈ 0.781 µM) | 1.7 µg/mL (≈ 2.8 µM) | can hardly be solved in water
2 | C[C@@]1(c2ccc(O)cc2)CSc2cc(O)ccc2[C@@H]1CCCCCCCCC(CCCC(F)(F)C(F)(F)F)C(=O)[O-].[Na+] (mixture of isomers) [Example 1, Sodium (3′RS,4′RS)-10-[7-hydroxy-3-(4-hydroxyphenyl)-3-methylthiochroman-4-yl]-2-(4,4,5,5,5-pentafluoropentyl)decanoate] | 74% |  |  |  | 
3 | CC1(c2ccc(O)cc2)CSc2cc(O)ccc2C1CCCCCCCCC(CCCC(F)(F)C(F)(F)F)C(=O)O (stereo not drawn) [(3′RS,4′RS)-10-[7-Hydroxy-3-(4-hydroxyphenyl)-3-methylthiochroman-4-yl]-2-(4,4,5,5,5-pentafluoropentyl)decanoic Acid] | 79% |  |  |  | 

Source: patent publication US20030092695A1, “Metal salts of 3-methyl-chromane or thiochromane derivatives” (priority 1999, published 2003)
